Here are results for 20 compounds from ChEMBL document CHEMBL4364300, “Boron in drug design: Recent advances in the development of new therapeutic agents” (Eur J Med Chem, 2019).

For test [1], the system named is Plasmodium falciparum. Briefly: Antimalarial activity against Plasmodium falciparum AN3661 derived from malaria patient. It counts as functional.
Test [2] relates to Plasmodium falciparum. Briefly: Antimalarial activity against Plasmodium falciparum FCR-3 after 48 hrs by [3H]-hypoxanthine incorporation assay. The format is functional, organism-based. Particulars: FCR-3/Gambia.
In test [3] the test system is Plasmodium falciparum. In words: Antimalarial activity against Plasmodium falciparum K1 after 48 hrs by [3H]-hypoxanthine incorporation assay. It counts as functional, organism-based.
In another test the test system is Plasmodium berghei. In words: Antimalarial activity against Plasmodium berghei […]. It counts as functional.
The subject of test [4] is Plasmodium falciparum. In words: Antimalarial activity against Plasmodium falciparum W2 after 48 hrs by [3H]-hypoxanthine incorporation assay. The format is functional, organism-based.
Test [5] relates to Plasmodium falciparum. In words: Antimalarial activity against Plasmodium falciparum HB3 after 48 hrs by [3H]-hypoxanthine incorporation assay. It counts as functional, organism-based.
The test system of test [6] is Plasmodium falciparum. Briefly: Antimalarial activity against Plasmodium falciparum 3D7 after 48 hrs by [3H]-hypoxanthine incorporation assay. The format is functional, organism-based.
The test system of test [7] is Plasmodium falciparum. In words: Antimalarial activity against Plasmodium falciparum TM90C2B after 48 hrs by [3H]-hypoxanthine incorporation assay. The format is functional, organism-based.
In test [8] the test system is Plasmodium falciparum. Briefly: Antimalarial activity against Plasmodium falciparum Ugandan field isolates after 48 hrs by [3H]-hypoxanthine incorporation assay. The format is functional, organism-based.
For test [9], the system named is Plasmodium falciparum. Briefly: Antimalarial activity against Plasmodium falciparum Dd2 after 48 hrs by [3H]-hypoxanthine incorporation assay. It counts as functional, organism-based.
For the next test, the system named is HCT-116. In words: Antiproliferative activity against human HCT116 cells by MTT assay. The format is functional, cell-based.
For test [10], the system named is MDA-MB-231. In words: Antiproliferative activity against human MDA-MB-231 cells by MTT assay. It counts as functional, cell-based.
The test system of the next test is SK-OV-3. In words: Antiproliferative activity against human SKOV3 cells by MTT assay. It counts as functional, cell-based.
Test [11] in a line: Inhibition of bacterial beta lactamase CTX-M-9. The arrangement: species or system Bacteria.
The nature of test [12]: Inhibition of bacterial beta lactamase AmpC. The arrangement: species or system Bacteria.
The target in test [13] is 3',5'-cyclic-AMP phosphodiesterase 4B (Homo sapiens, UniProt Q07343). Briefly: Inhibition of […] human recombinant PDE4B catalytic domain (152 to 484 residues).
3',5'-cyclic-AMP phosphodiesterase 4B, sequence (Q07343 whole entry, the tested form may be a part): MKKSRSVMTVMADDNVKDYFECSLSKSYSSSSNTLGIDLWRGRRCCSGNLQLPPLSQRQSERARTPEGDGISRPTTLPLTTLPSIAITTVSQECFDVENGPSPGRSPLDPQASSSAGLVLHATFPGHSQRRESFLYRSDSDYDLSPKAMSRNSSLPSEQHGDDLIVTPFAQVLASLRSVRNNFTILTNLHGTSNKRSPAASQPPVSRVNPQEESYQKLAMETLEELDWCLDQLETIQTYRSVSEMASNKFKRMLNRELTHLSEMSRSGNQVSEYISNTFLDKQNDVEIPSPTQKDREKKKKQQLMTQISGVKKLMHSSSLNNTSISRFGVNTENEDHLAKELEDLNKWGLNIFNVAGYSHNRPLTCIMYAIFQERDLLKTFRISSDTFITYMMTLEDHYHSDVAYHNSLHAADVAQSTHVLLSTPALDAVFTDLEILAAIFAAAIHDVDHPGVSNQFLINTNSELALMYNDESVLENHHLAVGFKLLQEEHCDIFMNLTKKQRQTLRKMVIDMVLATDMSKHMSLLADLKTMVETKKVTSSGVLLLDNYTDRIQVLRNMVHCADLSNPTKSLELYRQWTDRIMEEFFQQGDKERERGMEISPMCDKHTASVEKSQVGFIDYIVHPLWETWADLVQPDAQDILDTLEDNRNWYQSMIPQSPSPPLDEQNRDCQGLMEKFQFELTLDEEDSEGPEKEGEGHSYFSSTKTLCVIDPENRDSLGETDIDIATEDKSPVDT
In another test the test system is Leishmania mexicana. In words: Antileishmanial activity Leishmania mexicana MNYC/BZ/62/M379 after 72 hrs by giemsa staining based light microscopic analysis. The format is functional, organism-based. The following applies: MNYC/BZ/62/M379, 72 h.
The subject of the next test is Leishmania panamensis. In words: Antileishmanial activity Leishmania panamensis MHOM/PA/67/BOYNTON after 72 hrs by giemsa staining based light microscopic analysis. It counts as functional, organism-based.
The subject of test [14] is Leishmania tropica. In words: Antileishmanial activity Leishmania tropica AO21/p after 72 hrs by giemsa staining based light microscopic analysis. The format is functional, organism-based.
The test system of test [15] is Leishmania tropica. Briefly: Antileishmanial activity Leishmania tropica MHOM/IR/2013/HTD4 after 72 hrs by giemsa staining based light microscopic analysis. The following applies: MHOM/IR/2013/HTD4, 72 h. The format is functional, organism-based.
The test system of another test is Leishmania major. Briefly: Antileishmanial activity Leishmania major MHOM/SA/85/JISH118 after 72 hrs by giemsa staining based light microscopic analysis. It counts as functional, organism-based. The following applies: MHOM/SA/85/JISH118, 72 h.
Another test concerns Leishmania aethiopica. In words: Antileishmanial activity Leishmania aethiopica MHOM/ET/84/KH after 72 hrs by giemsa staining based light microscopic analysis. The format is functional, organism-based.
Test [16] concerns the target Proteasome Macropain subunit MB1 (Homo sapiens, UniProt P28074). Briefly: Inhibition of human chymotrypsin-like activity of 20S proteasome (unknown origin).
Test [17] deals with MDA-MB-231. Briefly: Antiproliferative activity against human MDA-MB-231 cells after 72 hrs. It counts as functional, cell-based. Particulars: MDA-MB-231, 72 h.
Test [18] can be described thus: Inhibition of bacterial beta lactamase KPC-2. The arrangement: species or system Bacteria.
The nature of test [19]: Inhibition of bacterial beta lactamase VIM-2. The arrangement: species or system Bacteria.
The nature of test [20]: Inhibition of bacterial beta lactamase NDM-1. The arrangement: species or system Bacteria.
Test [21] is described as follows: Inhibition of bacterial beta lactamase CTX-M-15. More on the design: species or system Bacteria.
For another test, the system named is GH3. Briefly: Cytotoxicity against rat GH3 cells. The format is functional, cell-based.
The subject of the next test is A2780. In words: Antiproliferative activity against human A2780 cells by MTT assay. It counts as functional, cell-based.
A further test deals with HepG2. In words: Antiproliferative activity against human HepG2 cells by MTT assay. The format is functional, cell-based.
In a further test the test system is Hep 3B2. Briefly: Antiproliferative activity against human Hep3B cells by MTT assay. It counts as functional, cell-based.
Test [22] can be described thus: Inhibition of bacterial beta lactamase CTX-M-15 after 5 mins. The arrangement: species or system Bacteria.
Test [23] in a line: Inhibition of Pseudomonas aeruginosa beta lactamase AmpC after 5 mins.
The nature of test [24]: Inhibition of bacterial beta lactamase OXA-48 after 5 mins. The arrangement: species or system Bacteria.
Test [25] can be described thus: Inhibition of bacterial beta lactamase OXA-10 after 5 mins. More on the design: species or system Bacteria.
Test [26] is described as follows: Inhibition of bacterial beta lactamase OXA-24 after 5 mins. The arrangement: species or system Bacteria.
Test [27] is described as follows: Inhibition of bacterial beta lactamase KPC-2 after 5 mins. The arrangement: species or system Bacteria.
For another test, the target named is Beta-lactamase TEM (Bacteria, UniProt P62593). Briefly: Inhibition of bacterial beta lactamase TEM-1 after 5 mins.
Beta-lactamase TEM, sequence (P62593 whole entry): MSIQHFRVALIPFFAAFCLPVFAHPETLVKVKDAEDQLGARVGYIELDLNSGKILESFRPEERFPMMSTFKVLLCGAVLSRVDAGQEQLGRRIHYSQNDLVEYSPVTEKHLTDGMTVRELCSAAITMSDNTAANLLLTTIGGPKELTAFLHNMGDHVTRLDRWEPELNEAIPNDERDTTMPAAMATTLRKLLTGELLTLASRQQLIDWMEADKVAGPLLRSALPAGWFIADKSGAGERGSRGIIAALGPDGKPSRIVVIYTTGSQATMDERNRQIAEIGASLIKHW
Test [28] in a line: Inhibition of Enterobacter cloacae beta lactamase P99 after 5 mins.
The next test relates to THP-1. In words: Cytotoxicity against human THP1 cells after 72 hrs by SRB assay. The format is functional, cell-based. Particulars: THP-1, 72 h.
For test [29], the system named is Mycobacterium tuberculosis. In words: Antimycobacterial activity against Mycobacterium tuberculosis H37Rv after 14 days by broth micro-dilution method. The following applies: 336 h. It counts as functional.
The subject of another test is Enterococcus faecium. In words: Antibacterial activity against Enterococcus faecium ATCC 568. It counts as functional.
The subject of the next test is Streptococcus pneumoniae. In words: Antibacterial activity against Streptococcus pneumoniae ATCC 49619. The format is functional.
For test [30], the system named is Mycobacterium tuberculosis. Briefly: […] activity against Mycobacterium tuberculosis. It counts as functional.
The next test concerns Trichomonas vaginalis. Briefly: Antiprotozoal activity against Trichomonas vaginalis G3. The format is functional, organism-based.
Test [31] concerns Trypanosoma brucei brucei. Briefly: Anti-parasitic activity against trypomastigote form of Trypanosoma brucei brucei 427 after 24 hrs by resazurin dye-based assay. The format is functional, organism-based. Particulars: Trypanosoma brucei, 427, 24 h.
Test [32] can be described thus: Inhibition of bacterial beta lactamase OXA-24. The arrangement: species or system Bacteria.

pEC50, pIC50, pKi: −log10 of the molar value. In brackets after ≈: the same amount, converted by molar mass.

Proteasome Macropain subunit MB1, sequence (P28074 whole entry): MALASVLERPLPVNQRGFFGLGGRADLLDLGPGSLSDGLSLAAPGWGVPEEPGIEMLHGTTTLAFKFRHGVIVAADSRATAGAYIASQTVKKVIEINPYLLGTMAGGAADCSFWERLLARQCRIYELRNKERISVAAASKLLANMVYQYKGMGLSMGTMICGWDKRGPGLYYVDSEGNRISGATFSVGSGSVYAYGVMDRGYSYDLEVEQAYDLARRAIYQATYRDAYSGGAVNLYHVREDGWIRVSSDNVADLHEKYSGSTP

In the case of `O=C(O)CCc1cccc2c1B(O)OC2`, the ED90 stood at 0.34 mg/kg with Plasmodium falciparum [1] and 0.57 mg/kg in the test on Plasmodium berghei. Moreover, the pIC50 with Plasmodium falciparum [2], in the test with Plasmodium falciparum [3], in the test on Plasmodium falciparum [4], with Plasmodium falciparum [5], in the test on Plasmodium falciparum [6] and in the test on Plasmodium falciparum [7] was 7.49 in each case. Further, the pIC50 in the test with Plasmodium falciparum [8] was 7.19; in the test with Plasmodium falciparum [9], 7.49.
Turning to `O=C(/C=C/c1ccc2c(c1)B(O)OC2)c1ccc(F)cc1`, the pIC50 in the test on HCT-116, in the test with MDA-MB-231 [10] and in the test with SK-OV-3 was 5.55 to 5.85 throughout.
As for `O=C(O)/C=C/c1c(B(O)O)sc2ccccc12`, the pKi in test [11] and in test [12] was 7.05 to 7.40 each time.
For the compound `CC(C)OCCOc1nc(Oc2ccc3c(c2)COB3O)ccc1C#N`, in test [13], the pIC50 is 8.08 to 8.68.
On to `CN(C)CCOc1cc(NC(=O)c2ccc3c(c2)COB3O)ccc1Cl`, for which the pEC50 with Leishmania mexicana, in the test on Leishmania panamensis, in the test on Leishmania tropica [14], in the test with Leishmania tropica [15], in the test with Leishmania major and with Leishmania aethiopica was 4.64 to 5.70 each time.
For the compound `CSC[C@H](NC(=O)c1cc(Cl)ccc1Cl)C(=O)N[C@@H](CC(C)C)B1OCCNCCO1`, the pIC50 in test [16] is 8.34; in the test with MDA-MB-231 [17], 8.08.
Take `O=C(Nc1ccc2c(c1)B(O)OC2)c1cn(-c2ccccn2)nn1`: the pEC50 in the test on Leishmania mexicana, in the test with Leishmania panamensis, in the test with Leishmania tropica [14], in the test on Leishmania tropica [15], with Leishmania major and with Leishmania aethiopica was 4.64 to 5.70 throughout.
For `CC(C)(C)OC(=O)c1cccc2cc(B(O)O)sc12`, the pIC50 is 5.35 to 5.64 in test [18], 4.56 to 4.69 in test [19], 4.56 to 4.69 in test [20] and 5.35 to 5.64 in test [21].
For `CCc1cccc(Nc2ccn(CCC(=O)N[C@@H](CC(C)C)B(O)O)c(=O)c2)c1`, the pKi in test [16] was 7.77.
In turn, `CCOC(=O)/C(C#N)=C/c1ccc(B(O)O)cc1` showed a pIC50 in the test with GH3 of 6.85.
For the compound `OB1OC(N2CCOCC2)c2cc(F)ccc21` (stereo unspecified), the pIC50 with A2780 is 4.83.
Consider `Cc1cnn(B(n2cc(C)cn2)n2cc(C)cn2)c1`, for which the pIC50 was 5.90 in the test on HepG2 and 4.82 with Hep 3B2.
In [12], `NCc1ccc2sc(B(O)O)cc2c1` had a pIC50 of 6.40.
With `Cc1c(Oc2nc(N)ns2)cc2c(c1C)[C@@H](CC(=O)O)OB2O`, the pIC50 in [22], in test [23], in test [24], in [25], in [26] and in [27] was 5.41 to 8.30 in each case. In addition, the pIC50 (against Beta-lactamase TEM; in test [28]) was 5.41 to 8.30 throughout.
For the compound `Cc1ccc2c(c1-c1ccccc1C(N)=O)B(O)OC2`, the pIC50 with THP-1 is 5.74. Also, in test [29], the MIC99 was 5 µM (≈ 1.34 µg/mL).
Consider `CC[C@H]1OC(=O)[C@H](C)[C@@H](O[C@H]2C[C@@](C)(OC)[C@@H](OC(=O)NCCCNC(=O)CCc3cccc4c3B(O)OC4)[C@H](C)O2)[C@H](C)[C@@H](O[C@@H]2O[C@H](C)C[C@H](N(C)C)[C@H]2O)[C@](C)(O)C[C@@H](C)CN(C)[C@H](C)[C@H]2OC(=O)O[C@@]21C`, for which the MIC in the test with Enterococcus faecium and with Streptococcus pneumoniae was 0.13 mg/L (≈ 0.122 µM) throughout.
`O=C(/C=C/c1ccc2c(c1)OCO2)Nc1ccc2c(c1)B(O)OC2` showed an MIC99 in test [30] of 40.7 µM (≈ 13.2 µg/mL). Besides, the pIC50 with Trichomonas vaginalis is 4.64; in [31] it was 7.07.
With `CC(C)(C)OC(=O)Nc1cccc2cc(B(O)O)sc12`, the pIC50 in test [18] and in [21] was 5.35 to 5.64 throughout.
For the compound `O=C(O)c1cccc2cc(B(O)O)sc12`, the pIC50 in test [19] was 4.56 to 4.69; in test [32], 4.64; in test [20], 4.56 to 4.69.
Regarding `Nc1ccc2c(c1Br)B(O)OC2`, the MIC99 in test [29] was determined as 1.9 µM (≈ 0.433 µg/mL).
